Entries after “also recorded” stand apart in the source; their conditions may differ.
Columns and labels:
KOR = test: Kinase assay (LANCE Ultra TR-FRET), KOR; type: biochemical
Experimental: (§1) Kinase assays were conducted in 384-well plates using LANCE ultra 66 time-resolved fluorescence resonance energy transfer (TR-FRET) methods, according to the manufacturer’s instructions (Perkin-Elmer). In brief, each kinase was pre-incubated with a serially diluted compound for 30 min, incubated with ULight poly-GT peptide substrate and ATP for up to 1 h. Thirty minutes after adding Eu-labeled anti-phosphopeptides Ab diluted in LANCE Detection Buffer, LANCE signals were measured with an EnVision multilabel reader (Perkin-Elmer).

FGFR1 = FGFR1 (Homo sapiens, UniProt P11362); test: Kinase assay (LANCE Ultra TR-FRET), FGFR1; type: biochemical
Chain of FGFR1 (P11362 22-822, species assumed): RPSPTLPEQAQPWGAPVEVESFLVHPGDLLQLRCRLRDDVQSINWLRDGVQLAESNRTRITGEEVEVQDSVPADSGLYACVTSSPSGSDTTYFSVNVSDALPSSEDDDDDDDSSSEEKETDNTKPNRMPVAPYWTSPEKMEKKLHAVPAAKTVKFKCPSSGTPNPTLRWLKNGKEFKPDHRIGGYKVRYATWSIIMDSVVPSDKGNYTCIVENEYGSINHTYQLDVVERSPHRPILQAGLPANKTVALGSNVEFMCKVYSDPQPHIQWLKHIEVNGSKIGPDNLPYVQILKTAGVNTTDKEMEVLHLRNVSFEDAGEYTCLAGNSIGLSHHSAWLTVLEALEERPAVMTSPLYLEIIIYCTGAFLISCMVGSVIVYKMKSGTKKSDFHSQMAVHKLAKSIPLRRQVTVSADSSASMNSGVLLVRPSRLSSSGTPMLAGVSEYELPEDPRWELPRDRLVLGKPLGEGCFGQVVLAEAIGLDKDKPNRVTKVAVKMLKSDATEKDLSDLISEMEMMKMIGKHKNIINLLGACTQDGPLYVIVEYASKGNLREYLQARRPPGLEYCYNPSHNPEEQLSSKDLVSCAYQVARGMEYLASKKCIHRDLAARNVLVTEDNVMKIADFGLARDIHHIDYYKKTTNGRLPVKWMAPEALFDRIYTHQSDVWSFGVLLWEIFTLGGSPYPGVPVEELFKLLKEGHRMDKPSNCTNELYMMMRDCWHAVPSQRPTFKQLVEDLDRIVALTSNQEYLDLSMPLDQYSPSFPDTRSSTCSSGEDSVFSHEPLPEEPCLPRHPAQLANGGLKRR
Experimental: as §1

[1] = target: T1, phosphorylated Syk (p-Syk) in THP-1 cells (Homo sapiens, UniProt P43405); test: p-Syk ELISA in IgG-stimulated THP-1 cells (FcγR signal); type: cell-based
T1 construct: endogenous in cells; host or cells: Ramos (ATCC), THP-1 (ATCC), human CD14+ monocytes (Lonza)
Experimental: (§2) THP-1 and Ramos cell lines and human CD14^+ monocytes were purchased from the American Type Culture Collection (ATCC) and Lonza, respectively. After treatment with Syk inhibitors for 1 h, THP-1 cells and monocytes were stimulated for 15 min with 100 μg/ml human IgG (Invitrogen), and Ramos cells were stimulated with 2 μg/ml anti-human IgM monoclonal Ab (mAb) (Bathyl). Cells were lysed in RIPA buffer containing 1% NP-40, 1% sodium deoxycholate, 0.1% SDS, and a mixture of protease and phosphatase inhibitors (Thermo Scientific). The lysates were assayed by standard immunoblotting methods and ELISA. Primary Abs used for immunoblotting were anti-phospho-Syk ([…]), anti-phospho-Vav (Y174), anti-phospho-PLCγ1 (Y1217) and anti-phospho-BLNK (Y96) Abs (all from Cell Signaling). ELISAs to detect phospho-Syk (Y525/526) were performed according to the manufacturer’s protocol (Cell Signaling).
(§3) Ramos cells (A), human primary monocytes (B), and THP cells (C) were pretreated with inhibitors at the indicated concentrations and stimulated with anti-human IgM (A) and human IgG (B and C). […] The relative intensities of protein phosphorylation levels were quantitated with reference to each lane of β-actin control bands. (D) Ramos cells, human primary monocytes, and THP cells were treated as in A–C for 24 h and levels of phosphorylated Syk (p-Syk) were measured by ELISA.

FLT3 = FLT3 (Homo sapiens, UniProt P36888); test: Kinase assay (LANCE Ultra TR-FRET), FLT3; type: biochemical
Chain of FLT3 (P36888 27-993, species assumed): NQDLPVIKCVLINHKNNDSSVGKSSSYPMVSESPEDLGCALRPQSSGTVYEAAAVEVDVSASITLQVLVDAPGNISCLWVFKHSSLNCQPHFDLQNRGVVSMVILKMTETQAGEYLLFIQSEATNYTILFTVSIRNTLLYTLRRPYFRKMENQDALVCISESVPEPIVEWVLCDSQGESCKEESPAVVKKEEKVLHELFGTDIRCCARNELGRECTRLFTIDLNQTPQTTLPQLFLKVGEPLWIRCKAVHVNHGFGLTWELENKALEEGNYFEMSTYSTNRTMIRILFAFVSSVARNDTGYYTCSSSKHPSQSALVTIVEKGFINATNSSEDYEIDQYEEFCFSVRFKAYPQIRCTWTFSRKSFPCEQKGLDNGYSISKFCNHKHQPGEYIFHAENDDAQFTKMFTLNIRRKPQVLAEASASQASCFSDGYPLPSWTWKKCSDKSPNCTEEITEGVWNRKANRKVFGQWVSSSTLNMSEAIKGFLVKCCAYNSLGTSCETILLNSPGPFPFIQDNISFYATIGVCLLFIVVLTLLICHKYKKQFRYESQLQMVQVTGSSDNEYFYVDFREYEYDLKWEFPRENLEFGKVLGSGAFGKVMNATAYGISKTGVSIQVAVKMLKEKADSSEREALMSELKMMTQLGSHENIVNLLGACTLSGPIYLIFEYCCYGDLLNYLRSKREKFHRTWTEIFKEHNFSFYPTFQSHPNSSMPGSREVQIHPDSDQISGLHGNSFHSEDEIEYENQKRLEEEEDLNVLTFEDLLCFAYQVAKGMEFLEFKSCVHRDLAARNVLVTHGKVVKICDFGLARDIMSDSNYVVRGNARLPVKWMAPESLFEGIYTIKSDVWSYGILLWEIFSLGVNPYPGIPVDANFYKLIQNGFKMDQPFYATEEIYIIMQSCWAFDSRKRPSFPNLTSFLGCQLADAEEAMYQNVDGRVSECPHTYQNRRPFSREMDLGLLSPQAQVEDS
Experimental: as §1

[2] = system: Syk phosphorylation (Y525/526), BLNK, PLCγ1, Vav1; test: Immunoblotting of phosphorylated Syk and downstream molecules in Ramos cells, human primary monocytes and THP-1 cells; type: cell-based; conditions: all three cell lines, dose-dependent, more potent than R406
Experimental: as §2
Figure 1: in vitro inhibitory effects of SKI-O-592 and -703 on Syk in B cells and monocytes. […] The relative intensities of protein phosphorylation levels were quantitated with reference to each lane of β-actin control bands. (D) Ramos cells, human primary monocytes, and THP cells were treated as in A–C for 24 h and levels of phosphorylated Syk (p-Syk) were measured by ELISA. […] A representative FACS profile and data on the dose-response of mean fluorescence intensity (MFI) are shown. […]

Zap70 = target: T2, Zap70 (Homo sapiens, UniProt P43403); test: Immunoblotting of Zap70 phosphorylation in TCR-stimulated T cells; type: cell-based; conditions: 0.3–10 μM
T2 construct: endogenous in cells; host or cells: human peripheral T cells sorted from PBMC, stimulated with anti-CD3 and anti-CD28
T2 sequence (P43403 whole entry): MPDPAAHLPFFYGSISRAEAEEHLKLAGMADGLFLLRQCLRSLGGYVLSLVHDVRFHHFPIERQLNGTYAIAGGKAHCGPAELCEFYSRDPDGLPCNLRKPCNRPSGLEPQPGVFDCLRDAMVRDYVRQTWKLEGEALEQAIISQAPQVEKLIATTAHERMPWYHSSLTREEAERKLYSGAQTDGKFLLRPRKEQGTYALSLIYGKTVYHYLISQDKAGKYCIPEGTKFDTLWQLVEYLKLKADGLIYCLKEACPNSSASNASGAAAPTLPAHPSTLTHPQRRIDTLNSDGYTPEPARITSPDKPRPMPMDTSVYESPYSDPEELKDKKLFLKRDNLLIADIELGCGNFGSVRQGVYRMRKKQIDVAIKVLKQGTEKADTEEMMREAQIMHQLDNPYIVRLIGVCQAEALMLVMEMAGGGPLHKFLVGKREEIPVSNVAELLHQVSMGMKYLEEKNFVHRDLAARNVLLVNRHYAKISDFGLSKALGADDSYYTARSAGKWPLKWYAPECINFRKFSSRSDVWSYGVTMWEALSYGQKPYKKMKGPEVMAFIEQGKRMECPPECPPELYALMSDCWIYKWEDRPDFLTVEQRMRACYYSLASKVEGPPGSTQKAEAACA
Experimental: (A) The stru cture of SKI-O-703. (B-D) Human per ipheral T cells sorted fro m human peripheral blood mononuclear cells (B and D) and mouse primary T cells sorted from spleen (C ) wer e stimulated with 5 µ g/ml anti- CD3 and 2 µ g/ml anti- CD28 m Abs in the presence or absence of inhibitors as indicated. Af ter one hour (B) and 24 h ours (C and D) of culture, cells we re assaye d
by immunoblotting (B), FA C S ( C), and ELISA (D).
of Zap70 and its downstream target PLCγ1. It’s effect on the suppression of IL-2 production

RET = RET (Homo sapiens, UniProt P07949); test: Kinase assay (LANCE Ultra TR-FRET), RET; type: biochemical
Chain of RET (P07949 29-1114, species assumed): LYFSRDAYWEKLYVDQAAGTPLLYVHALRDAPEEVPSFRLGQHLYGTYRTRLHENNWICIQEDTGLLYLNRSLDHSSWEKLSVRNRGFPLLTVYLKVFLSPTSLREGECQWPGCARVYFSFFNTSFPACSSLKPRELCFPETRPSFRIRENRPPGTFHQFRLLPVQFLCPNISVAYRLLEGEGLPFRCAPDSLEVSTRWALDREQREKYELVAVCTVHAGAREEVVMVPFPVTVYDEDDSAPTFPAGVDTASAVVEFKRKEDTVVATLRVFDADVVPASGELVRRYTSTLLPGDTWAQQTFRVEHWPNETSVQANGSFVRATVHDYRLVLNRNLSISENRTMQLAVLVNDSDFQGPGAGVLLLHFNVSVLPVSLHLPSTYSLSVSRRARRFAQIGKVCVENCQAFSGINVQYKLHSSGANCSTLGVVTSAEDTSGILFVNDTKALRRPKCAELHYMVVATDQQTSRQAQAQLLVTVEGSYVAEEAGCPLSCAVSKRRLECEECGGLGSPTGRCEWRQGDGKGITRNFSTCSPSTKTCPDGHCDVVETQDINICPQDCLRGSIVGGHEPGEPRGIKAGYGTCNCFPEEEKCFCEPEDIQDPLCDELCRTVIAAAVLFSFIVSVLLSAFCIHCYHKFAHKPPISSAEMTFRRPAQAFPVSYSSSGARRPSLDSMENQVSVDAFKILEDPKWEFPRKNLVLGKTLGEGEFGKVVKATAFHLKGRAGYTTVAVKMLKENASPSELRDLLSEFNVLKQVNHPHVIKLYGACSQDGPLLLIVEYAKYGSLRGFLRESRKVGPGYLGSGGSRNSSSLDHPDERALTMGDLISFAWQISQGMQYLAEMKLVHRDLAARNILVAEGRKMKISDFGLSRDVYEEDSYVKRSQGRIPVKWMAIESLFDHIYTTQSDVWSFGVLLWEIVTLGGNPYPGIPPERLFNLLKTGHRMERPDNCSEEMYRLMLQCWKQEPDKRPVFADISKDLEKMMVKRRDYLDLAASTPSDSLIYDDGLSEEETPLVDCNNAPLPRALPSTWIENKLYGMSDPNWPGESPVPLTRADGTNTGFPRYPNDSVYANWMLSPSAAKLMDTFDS
Experimental: as §1

[3] = target: T3, phosphorylated Syk (p-Syk) in human CD14+ monocytes (Homo sapiens, UniProt P43405); test: p-Syk ELISA in IgG-stimulated human CD14+ monocytes (FcγR signal); type: cell-based
T3 construct: endogenous in cells; host or cells: Ramos (ATCC), THP-1 (ATCC), human CD14+ monocytes (Lonza)
Experimental: as §2, §3

Pyk2 = Pyk2 (Homo sapiens, UniProt Q14289); test: Kinase assay (LANCE Ultra TR-FRET), Pyk2; type: biochemical
Chain of Pyk2 (Q14289 whole entry, species assumed): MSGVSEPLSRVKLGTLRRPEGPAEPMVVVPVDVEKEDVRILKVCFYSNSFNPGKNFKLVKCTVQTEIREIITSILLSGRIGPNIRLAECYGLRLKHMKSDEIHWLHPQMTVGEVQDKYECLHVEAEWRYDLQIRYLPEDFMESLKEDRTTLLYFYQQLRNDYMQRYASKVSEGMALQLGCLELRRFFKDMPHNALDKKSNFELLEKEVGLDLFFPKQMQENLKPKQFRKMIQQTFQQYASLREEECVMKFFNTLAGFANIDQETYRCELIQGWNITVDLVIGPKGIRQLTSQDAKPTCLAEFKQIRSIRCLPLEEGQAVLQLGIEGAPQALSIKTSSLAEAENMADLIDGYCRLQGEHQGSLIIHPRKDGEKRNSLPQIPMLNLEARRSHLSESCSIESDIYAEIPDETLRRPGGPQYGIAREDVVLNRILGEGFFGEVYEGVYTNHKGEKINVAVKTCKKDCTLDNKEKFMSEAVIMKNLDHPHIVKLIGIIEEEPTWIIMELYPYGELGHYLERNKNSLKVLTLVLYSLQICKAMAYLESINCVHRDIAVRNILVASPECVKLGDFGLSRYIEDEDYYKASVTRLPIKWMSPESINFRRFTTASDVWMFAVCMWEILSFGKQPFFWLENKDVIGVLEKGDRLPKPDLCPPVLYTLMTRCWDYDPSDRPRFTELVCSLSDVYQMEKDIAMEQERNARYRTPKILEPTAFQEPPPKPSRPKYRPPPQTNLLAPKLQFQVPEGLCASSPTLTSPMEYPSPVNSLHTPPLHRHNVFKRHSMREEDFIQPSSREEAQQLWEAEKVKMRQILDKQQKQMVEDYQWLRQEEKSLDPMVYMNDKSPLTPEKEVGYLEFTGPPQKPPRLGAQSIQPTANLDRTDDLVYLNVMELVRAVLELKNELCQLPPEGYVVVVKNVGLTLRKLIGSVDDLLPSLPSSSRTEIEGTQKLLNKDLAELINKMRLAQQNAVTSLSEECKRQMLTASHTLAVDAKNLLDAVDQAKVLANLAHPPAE
Experimental: as §1

human primary B cells = test: IgM, IgG and IL-6 secretion by stimulated human primary B cells (ELISA); type: cell-based; conditions: TLR9 agonist plus IL-2 or IFN-α; efficacy comparable to R406
Experimental: Human CD19^+ B cells (Lonza) were pre-treated with inhibitors for 1 h and stimulated for 24 h with 50 nM CpG ODN 2006 plus 10 ng/ml IL-2 or 1 μM CpG ODN 2006 plus 20 ng/ml IFN-α. Culture supernatants were assayed by ELISA to detect secreted IgG, IgM, and IL-6, according to the manufacturer’s instructions.
Figure 2: in vitro effects of SKI-O -703 on the proliferation, survival, and differentiation of B cells. Mouse primary B cells were labeled with CP670, and stimulated with either anti-IgM mAb, CD40L and IL-4 (A) or LPS (B) for 72 h in the presence or absence of SKI-O-703 and tofacitinib at the indicated concentrations; they were then assayed by FACS. (C and D) Mouse primary B cells were cultured as in A and B for 24 h, stained with Annexin V and 7-AAD, and assayed by FACS. Representative FACS profiles and graphs displaying mean Annexin V-positivity are shown. (E) Human primary B cells were stimulated with CpG ODN plus IL-2 (to detect IgM and IgG) or CpG ODN 2006 plus IFN-α (to detect IL-6) in the presence or absence of inhibitors. The culture supernatants were assayed by ELISA. Graphs are expressed as % positivity relative to the controls (without inhibitor). The data are representative of 2–3 independent experiments. *P < 0.05, **P < 0.01, and ***P < 0.001, compared with vehicle control by two-tailed unpaired Students t-tests.

Syk = Syk (Homo sapiens, UniProt P43405); test: Kinase assay (LANCE Ultra TR-FRET), Syk; type: biochemical
Experimental: as §1

Aqueous solubility = type: physicochemical; conditions: aqueous solution

| SMILES | Ratio to Syk (KOR) (KOR; IC50 ratio to Syk) | IC50 (KOR; kinase activity, TR-FRET) [nM] | Ratio to Syk (FGFR1) (FGFR1; IC50 ratio to Syk) | IC50 (FGFR1; kinase activity, TR-FRET) [nM] | IC50 [1] [nM] | Ratio to Syk (FLT3) (FLT3; IC50 ratio to Syk) | IC50 (FLT3; kinase activity, TR-FRET) [nM] | Phosphorylation of Syk Y525/526 and downstream BLNK, PLCγ1, Vav1 (immunoblotting) [2] | Phosphorylation of Zap70 and its downstream target PLCγ1 (Zap70) | Ratio to Syk (RET) (RET; IC50 ratio to Syk) | IC50 (RET; kinase activity, TR-FRET) [nM] | IC50 [3] [nM] | Ratio to Syk (Pyk2) (Pyk2; IC50 ratio to Syk) | IC50 (Pyk2; kinase activity, TR-FRET) [nM] | Production of IgM, IgG and IL-6 (human primary B cells) | Ratio to Syk (Syk) (Syk; IC50 ratio to Syk) | IC50 against all other kinases tested relative to Syk (Syk; fold higher than against Syk) | IC50 (Syk; kinase activity, TR-FRET) [nM] | Potency as Syk kinase inhibitor relative to R406 (Syk; more potent than R406) | Solubility (Aqueous solubility) |
| --- | --- | --- | --- | --- | --- | --- | --- | --- | --- | --- | --- | --- | --- | --- | --- | --- | --- | --- | --- | --- |
| Cc1nn(-c2ccnc(Nc3ccc4c(c3)c(C(=O)C3CC3)cn4C)n2)cc1CN1C[C@H](O)CO1 [SKI-O-592] | 111 | 687 | 2753 | 17000 | 266 | 289 | 1780 | inhibited phosphorylation | did not inhib it phosphorylation; also recorded: failed to affect | 67 | 412 | 191 | 115 | 709 | inhibited the production of IgM, IgG, and IL-6 | 1.0 | 67- to 2753 fold | 6.2 | approximately 9 fold |  |
| CS(=O)(=O)O.CS(=O)(=O)O.Cc1nn(-c2ccnc(Nc3ccc4c(c3)c(C(=O)C3CC3)cn4C)n2)cc1CN1C[C@H](O)CO1 [SKI-O-703, (S)-cyclopropyl(5-((4-(4-((4-hydroxyisoxazolidin-2-yl)methyl)-3-methyl-1H-pyrazol-1-yl)pyrimidin-2-yl)amino)-1-methyl-1H-indol-3-yl)methanone dimesylate] |  |  |  |  |  |  |  |  |  |  |  |  |  |  |  |  |  |  |  | soluble in aqueous solution |
